Laboratory results as given in PubChem BioAssay (NCI).
“And” between values parts separate entries of the source, which are not always exact repeats. Equal values may be shown once.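 Following 48 hours of exposure in 96-well plates, responses at five concentrations were used to interpolate endpoints linearly. At the GI50, growth is halved. TGI marks complete inhibition of growth.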

Experiments:
Experiment in all cases: NCI tumour cell line growth inhibition, 48 h
DU-145 prostate = tested on: DU-145 prostate
SR leukemia = tested on: SR leukemia
SK-MEL-5 melanoma = tested on: SK-MEL-5 melanoma
T-47D breast = tested on: T-47D breast
786-0 renal = tested on: 786-0 renal
A498 renal = tested on: A498 renal
HCC-2998 colon = tested on: HCC-2998 colon
HOP-92 NSCLC = tested on: HOP-92 NSCLC
OVCAR-8 ovarian = tested on: OVCAR-8 ovarian
U251 CNS = tested on: U251 CNS
P388 leukemia = tested on: P388 leukemia
LOX IMVI melanoma = tested on: LOX IMVI melanoma
NCI-H226 lung = tested on: NCI-H226 lung
NCI-H522 lung = tested on: NCI-H522 lung
SF-539 CNS = tested on: SF-539 CNS
DMS 114 small cell lung = tested on: DMS 114 small cell lung
A549 NSCLC = tested on: A549 NSCLC
HCT-116 colon = tested on: HCT-116 colon
HCT-15 colon = tested on: HCT-15 colon
IGROV1 ovarian = tested on: IGROV1 ovarian
HL-60(TB) leukemia = tested on: HL-60(TB) leukemia
XF 498 CNS = tested on: XF 498 CNS
OVCAR-4 ovarian = tested on: OVCAR-4 ovarian
EKVX NSCLC = tested on: EKVX NSCLC
SN12K1 renal = tested on: SN12K1 renal
HS 578T breast = tested on: HS 578T breast
P388/ADR leukemia = tested on: P388/ADR leukemia
M19-MEL melanoma = tested on: M19-MEL melanoma
KM12 colon = tested on: KM12 colon
HOP-62 NSCLC = tested on: HOP-62 NSCLC
SK-OV-3 ovarian = tested on: SK-OV-3 ovarian
DMS 273 small cell lung = tested on: DMS 273 small cell lung
ACHN renal = tested on: ACHN renal
OVCAR-3 ovarian = tested on: OVCAR-3 ovarian
NCI-H23 lung = tested on: NCI-H23 lung

COC1C(O)C(C)OC(OC2C(Oc3cccc4c(O)c5c(=O)oc6ccc(C)c7c(=O)oc(c34)c5c67)OC(C)C(O)C2O)C1O (stereo not drawn)
TGI (DU-145 prostate): 53.6 µM
TGI (SR leukemia): 6.47 µM
GI50 (SK-MEL-5 melanoma): 1.91 µM
TGI (SK-MEL-5 melanoma): 6.38 µM and 4.19 µM
TGI (T-47D breast): 7.66 µM
TGI (786-0 renal): 4.57 µM
GI50 (A498 renal): 1.22 µM
TGI (A498 renal): 4.04 µM and 5.15 µM
GI50 (HCC-2998 colon): 1.1 µM
TGI (HCC-2998 colon): 4.56 µM and 7.81 µM
GI50 (HOP-92 NSCLC): 2.43 µM
GI50 (OVCAR-8 ovarian): 1.65 µM
TGI (OVCAR-8 ovarian): 52.8 µM and 5.65 µM
GI50 (U251 CNS): 0.543 µM
TGI (U251 CNS): 11.9 µM
TGI (P388 leukemia): 3.48 µM
GI50 (LOX IMVI melanoma): 0.688 µM
TGI (LOX IMVI melanoma): 7.55 µM and 10.5 µM
GI50 (NCI-H226 lung): 1.66 µM
TGI (NCI-H226 lung): 5.15 µM and 4.17 µM
GI50 (NCI-H522 lung): 0.747 µM
TGI (NCI-H522 lung): 2.74 µM and 3.67 µM
GI50 (SF-539 CNS): 1.19 µM
TGI (SF-539 CNS): 5.52 µM and 5.55 µM
TGI (DMS 114 small cell lung): 4.03 µM
GI50 (A549 NSCLC): 5.48 µM
TGI (A549 NSCLC): 53 µM and 40.4 µM
TGI (HCT-116 colon): 3.4 µM and 5.71 µM
TGI (HCT-15 colon): 63.6 µM and 34 µM
GI50 (IGROV1 ovarian): 3.08 µM
TGI (IGROV1 ovarian): > 69.9 µM and 12.9 µM
GI50 (HL-60(TB) leukemia): 4.08 µM
TGI (HL-60(TB) leukemia): 27.4 µM and 6.95 µM
TGI (XF 498 CNS): 3.37 µM
GI50 (OVCAR-4 ovarian): 11.5 µM
TGI (OVCAR-4 ovarian): 35.1 µM and 18.3 µM
GI50 (EKVX NSCLC): 3.81 µM
TGI (EKVX NSCLC): 15.2 µM and 4.85 µM
TGI (SN12K1 renal): 3.5 µM
TGI (HS 578T breast): 20.4 µM
TGI (P388/ADR leukemia): 85 µM
TGI (M19-MEL melanoma): 4.39 µM
GI50 (KM12 colon): 2.17 µM
TGI (KM12 colon): 16.6 µM and 8.05 µM
GI50 (HOP-62 NSCLC): 1.01 µM
TGI (HOP-62 NSCLC): 6.38 µM and 5.29 µM
GI50 (SK-OV-3 ovarian): 3.66 µM
TGI (SK-OV-3 ovarian): 17.2 µM and 23.3 µM
TGI (DMS 273 small cell lung): 9.1 µM
TGI (ACHN renal): 46.1 µM
TGI (OVCAR-3 ovarian): 10.7 µM and 8.63 µM
GI50 (NCI-H23 lung): 1.93 µM
TGI (NCI-H23 lung): 9.28 µM and 4.6 µM
